The target in assay [1] is T1, β5 subunit of the human constitutive proteasome (CPS) (Homo sapiens, UniProt P28074).
T1 construct: purchased Boston Biochem E-360
Nature of the assay: β5 inhibition assay, human constitutive proteasome (Suc-LLVY-AMC). To be noted: IC50 class, Suc-LLVY-AMC substrate. The assay is classed as biochemical. As for the experimental part:
The enzymatic activity of the β5 subunit of the human constitutive proteasome (CPS) is analyzed. In another assay, which differs from the assay of the human constitutive proteasome only in using the human immunoproteasome (IPS) the enzymatic activity of the β5 subunit of the human immunoproteasome (IPS) is analyzed. […] Inhibition is indicated as IC50 [nM] (“-”=not measured).

For assay [2], the system named is MM1 S (B lymphoblast cell line). Nature of the assay: 48 hr CTG viability assay, MM1S. It counts as cell-based. To be noted: Homo sapiens. The method, boiled down:
(§1)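 Growth inhibition by compound over 48 h; IC50 (nM) derived from duplicate CellTiter-Glo luminescence readings across 0.0015–10 uM.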

Assay [3] deals with A549 (human lung carcinoma cell line). Nature of the assay: Glo assay of A549 cells (Table 3; ProteasomeGlo plating scheme). It counts as cell-based. To be noted: Homo sapiens. In short, it runs like this:
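Cells plated in 384 wells; compound, DMSO, staurosporine transferred by ECHO; 105 min, 37° C., 5% CO2; Proteasome-Glo (Suc-LLVY-Glo) reagent added; dark 10-15 min; luminescence; IC50 nM.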

Assay [4] concerns the target T2, β5 subunit of the human immunoproteasome (IPS) (Homo sapiens, UniProt P28062).
T2 construct: purchased Boston Biochem E-370
Nature of the assay: β5 inhibition assay, human immunoproteasome (Suc-LLVY-AMC). The assay is classed as biochemical. To be noted: IC50 class, Suc-LLVY-AMC substrate. In short, it runs like this:
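β5 activity is read as liberated AMC fluorescence (355/460 nm) after 4 h dark reaction at RT with 22.6 μM Suc-LLVY-AMC, stopped by 1 μM bortezomib. Beforehand, 1 nM human IPS and compound sat 10 min at RT in HEPES pH 7.5 buffer containing NaCl, 0.02% SDS and DTT.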

Assay [5] concerns Hs 746T (human gastric carcinoma cell line). Put plainly: 48 hr CTG viability assay, Hs 746T. The assay is classed as cell-based. The note with it: Hs746T. In short, it runs like this:
as §1

The subject of assay [6] is RPMI 8226 (B lymphocyte cell line, multiple myeloma). Nature of the assay: 48 hr CTG viability assay, RPMI 8226. It counts as cell-based. To be noted: Homo sapiens. The method, boiled down:
as §1

Where [7] appears, read: A549 cells, read-out: PGLo A549.
Where [8] appears, read: 48 hr CTG, read-out: Hs 746T IC50.
The mark [9] stands for this setting: RPMI-8226, 48 hr CTG, read-out: RPMI-8226 IC50.

Our source for the IC50 values is patent publication US20240415819A1, “MACROCYCLIC COMPOUNDS AS PROTEASOME SUBUNIT BETA TYPE-5 INHIBITORS” (Lead Discovery Center GmbH, priority 2021, published 2024).

Where two headings read alike, the source gives them in different places.

Regarding `Cc1ccc2cc1CNC(=O)[C@H](CCc1ccccc1)NC(=O)[C@@H](NC(=O)CCNCCC1CC3CCC1C3)CC(=O)N1CCCC(CCO2)C1` (stereo partly drawn) [Compound 698, 3-((2-(bicyclo[2.2.1]heptan-2-yl)ethyl)amino)-N-((9S,12S)-5^4-methyl-8,11,14-trioxo-9-phenethyl-4-oxa-7,10-diaza-1(3,1)-piperidina-5(1,3)-benzenacyclotetradecaphane-12-yl)propanamide], the IC50 is less than 100 nM in assay [1]; less than 100 nM in assay [2] (48 hr CTG, read-out: MM1S IC50); less than 100 nM in assay [3] (setting [7]); less than 100 nM in assay [4]; less than 100 nM in assay [5] (setting [8]); less than 100 nM in assay [6] (setting [9]).

Take `Cc1ccc2cc1CNC(=O)[C@H](CCc1ccccc1)NC(=O)[C@@H](NC(=O)CCNCc1ccc(N3CCN(Cc4ccccc4)CC3)cc1)CC(=O)N1CCCC(CCO2)C1` (stereo partly drawn) [Compound 699, 3-((4-(4-benzylpiperazin-1-yl)benzyl)amino)-N-((9S,12S)-5^4-methyl-8,11,14-trioxo-9-phenethyl-4-oxa-7,10-diaza-1(3,1)-piperidina-5(1,3)-benzenacyclotetradecaphane-12-yl)propanamide]: the IC50 in assay [1] was less than 100 nM; in assay [2] (48 hr CTG, read-out: MM1S IC50), less than 100 nM; in assay [3] (setting [7]), less than 100 nM; in assay [4] it was less than 100 nM; in assay [5] (setting [8]) it was less than 100 nM; in assay [6] (setting [9]), less than 100 nM.

Take `Cc1ccc2cc1CNC(=O)[C@H](CCc1ccccc1)NC(=O)[C@@H](NC(=O)CCNCCC1CCCC1)CC(=O)N1CCCC(CCO2)C1` (stereo partly drawn) [Compound 700, 3-((2-cyclopentylethyl)amino)-N-((9S,12S)-5^4-methyl-8,11,14-trioxo-9-phenethyl-4-oxa-7,10-diaza-1(3,1)-piperidina-5(1,3)-benzenacyclotetradecaphane-12-yl)propanamide]: the IC50 in assay [1] is less than 100 nM; in assay [2] (48 hr CTG, read-out: MM1S IC50), less than 100 nM; in assay [3] (setting [7]) it was less than 100 nM; in assay [4], less than 100 nM; in assay [5] (setting [8]) it was less than 100 nM; in assay [6] (setting [9]), less than 100 nM.

Turning to `Cc1ccc2cc1CNC(=O)[C@H](CCc1ccccc1)NC(=O)[C@@H](NC(=O)CCNC(=O)C1CC3CCC1O3)CC(=O)N1CCCC(CCO2)C1` (stereo partly drawn) [Compound 701, N-(3-(((9S,12S)-5^4-methyl-8,11,14-trioxo-9-phenethyl-4-oxa-7,10-diaza-1(3,1)-piperidina-5(1,3)-benzenacyclotetradecaphane-12-yl)amino)-3-oxopropyl)-7-oxabicyclo[2.2.1]heptane-2-carboxamide], the IC50 in assay [1] is less than 100 nM; in assay [2] (48 hr CTG, read-out: MM1S IC50), less than 100 nM; in assay [3] (setting [7]) it was less than 100 nM; in assay [4], less than 100 nM; in assay [5] (setting [8]) it was less than 100 nM; in assay [6] (setting [9]), less than 100 nM.

As for `Cc1ccc2cc1CNC(=O)[C@H](CCc1ccccc1)NC(=O)[C@@H](NC(=O)CCN1CCC1)CC(=O)N1CCCC(CCO2)C1` (stereo partly drawn) [Compound 702, 3-(azetidin-1-yl)-N-((9S,12S)-5^4-methyl-8,11,14-trioxo-9-phenethyl-4-oxa-7,10-diaza-1(3,1)-piperidina-5(1,3)-benzenacyclotetradecaphane-12-yl)propanamide], the IC50 in assay [1] was less than 100 nM; in assay [2] (48 h, read-out: MM1S IC50 [nM]), less than 100 nM; in assay [3] (A549, read-out: PGLo A549 [nM]), less than 100 nM; in assay [4] it was less than 100 nM; in assay [5] (48 h, read-out: Hs 746T IC50 [nM]), less than 100 nM; in assay [6] (RPMI-8226, 48 h, read-out: RPMI-8226 IC50 [nM]) it was less than 100 nM.

With `Cc1ccc2cc1CNC(=O)[C@H](CCc1ccccc1)NC(=O)[C@@H](NC(=O)N1CCc3cnccc31)CC(=O)N1CCCC(CCO2)C1` (stereo partly drawn) [Compound 703, N-((9S,12S)-5^4-methyl-8,11,14-trioxo-9-phenethyl-4-oxa-7,10-diaza-1(3,1)-piperidina-5(1,3)-benzenacyclotetradecaphane-12-yl)-2,3-dihydro-1H-pyrrolo[3,2-c]pyridine-1-carboxamide], the IC50 in assay [1] was less than 100 nM; in assay [2] (48 hr CTG, read-out: MM1S IC50) it was less than 100 nM; in assay [3] (setting [7]) it was less than 100 nM; in assay [4] it was less than 100 nM; in assay [5] (setting [8]), less than 100 nM; in assay [6] (setting [9]), less than 100 nM.

Turning to `Cc1ccc2cc1CNC(=O)[C@H](CCc1ccccc1)NC(=O)[C@@H](NC(=O)N1CCc3cc(O)ccc31)CC(=O)N1CCCC(CCO2)C1` (stereo partly drawn) [Compound 705, 5-hydroxy-N-((9S,12S)-5^4-methyl-8,11,14-trioxo-9-phenethyl-4-oxa-7,10-diaza-1(3,1)-piperidina-5(1,3)-benzenacyclotetradecaphane-12-yl)indoline-1-carboxamide], the IC50 was less than 100 nM in assay [1]; less than 100 nM in assay [2] (48 hr CTG, read-out: MM1S IC50); less than 100 nM in assay [3] (setting [7]); less than 100 nM in assay [4]; less than 100 nM in assay [5] (setting [8]); less than 100 nM in assay [6] (setting [9]).

For the compound `Cc1ccc2cc1CNC(=O)[C@H](CCc1ccccc1)NC(=O)[C@@H](NC(=O)CCNCc1ccc(OCC3CCCCC3)cc1)CC(=O)N1CCCC(CCO2)C1` (stereo partly drawn) [Compound 706, 3-((4-(cyclohexylmethoxy)benzyl)amino)-N-((9S,12S)-5^4-methyl-8,11,14-trioxo-9-phenethyl-4-oxa-7,10-diaza-1(3,1)-piperidina-5(1,3)-benzenacyclotetradecaphane-12-yl)propanamide], the IC50 in assay [1] is less than 100 nM; in assay [2] (48 hr CTG, read-out: MM1S IC50), less than 100 nM; in assay [3] (setting [7]), less than 100 nM; in assay [4] it was less than 100 nM; in assay [5] (setting [8]), less than 100 nM; in assay [6] (setting [9]), less than 100 nM.

Turning to `CC(=O)c1ccc(CC(=O)N[C@H]2CCC(=O)NCCCCOc3ccc(C)c(c3)CNC(=O)[C@H](CCc3ccccc3)NC2=O)cc1` [Compound 707, 2-(4-acetylphenyl)-N-((11S,14S)-1^4-methyl-8,12,15-trioxo-1^4-phenethyl-2-oxa-7,13,16-triaza-1(1,3)-benzenacycloheptadecaphane-11-yl)acetamide], the IC50 is less than 100 nM in assay [1]; less than 100 nM in assay [2] (48 hr CTG, read-out: MM1S IC50); less than 100 nM in assay [3] (setting [7]); less than 100 nM in assay [4]; less than 100 nM in assay [5] (setting [8]); less than 100 nM in assay [6] (setting [9]).

For the compound `Cc1ccc2cc1CNC(=O)[C@H](CCc1ccc(N)cc1)NC(=O)[C@@H](NC(=O)Cc1cn3ccsc3n1)CC(=O)N1CCCC(CCO2)C1` (stereo partly drawn) [Compound 708, N-((9S,12S)-9-(4-aminophenethyl)-5^4-methyl-8,11,14-trioxo-4-oxa-7,10-diaza-1(3,1)-piperidina-5(1,3)-benzenacyclotetradecaphane-12-yl)-2-(imidazo[2,1-b]thiazol-6-yl)acetamide], the IC50 in assay [1] is less than 100 nM; in assay [2] (48 hr CTG, read-out: MM1S IC50), less than 100 nM; in assay [3] (setting [7]) it was less than 100 nM; in assay [4], less than 100 nM; in assay [5] (setting [8]), less than 100 nM; in assay [6] (setting [9]) it was less than 100 nM.

For `Cc1ccc2cc1CNC(=O)[C@H](CCc1ccccc1)NC(=O)[C@@H](NCC(F)(F)F)CC(=O)N1CCCC(CCO2)C1` (stereo partly drawn) [Compound 709, (9S,12S)-5^4-methyl-9-phenethyl-12-((2,2,2-trifluoroethyl)amino)-4-oxa-7,10-diaza-1(3,1)-piperidina-5(1,3)-benzenacyclotetradecaphane-8,11,14-trione], the IC50 in assay [1] was less than 100 nM; in assay [2] (48 hr CTG, read-out: MM1S IC50), less than 100 nM; in assay [3] (setting [7]), less than 100 nM; in assay [4], less than 100 nM; in assay [5] (setting [8]) it was 100 to 500 nM; in assay [6] (setting [9]) it was less than 100 nM.

`Cc1ccc2cc1CNC(=O)[C@H](CCc1ccccc1)NC(=O)[C@@H](NC(=O)CCOC1CC3(C1)CN(C)C3)CC(=O)N1CCCC(CCO2)C1` (stereo partly drawn) [Compound 710, 3-((2-methyl-2-azaspiro[3.3]heptan-6-yl)oxy)-N-((9S,12S)-5^4-methyl-8,11,14-trioxo-9-phenethyl-4-oxa-7,10-diaza-1(3,1)-piperidina-5(1,3)-benzenacyclotetradecaphane-12-yl)propanamide]: the IC50 in assay [1] was less than 100 nM; in assay [2] (48 hr CTG, read-out: MM1S IC50), less than 100 nM; in assay [3] (setting [7]) it was less than 100 nM; in assay [4], less than 100 nM; in assay [5] (setting [8]) it was less than 100 nM; in assay [6] (setting [9]), less than 100 nM.

Turning to `Cc1ccc2cc1CNC(=O)[C@H](CCc1ccccc1)NC(=O)[C@@H](NC1CC3C=CC1C3)CC(=O)N1CCCC(CCO2)C1` (stereo partly drawn) [Compound 711, (9S,12S)-12-(bicyclo[2.2.1]hept-5-en-2-ylamino)-5^4-methyl-9-phenethyl-4-oxa-7,10-diaza-1(3,1)-piperidina-5(1,3)-benzenacyclotetradecaphane-8,11,14-trione], the IC50 was less than 100 nM in assay [1]; less than 100 nM in assay [2] (48 hr CTG, read-out: MM1S IC50); 100 to 500 nM in assay [3] (setting [7]); less than 100 nM in assay [4]; 100 to 500 nM in assay [5] (setting [8]); less than 100 nM in assay [6] (setting [9]).
